From US5721234A, “Glutamate receptor antagonists: fused cycloalkylouinoxalinediones” (Warner-Lambert Company, priority 1995, dated 1998)
Structures can show the parent of a compound that is named as a salt.

Legend:
[1] = biological target: AMPA receptors; experiment: AMPA receptor binding affinity (Honore et al.)
[2] = biological target: kainate site (non-NMDA receptor); experiment: Kainate site (non-NMDA receptor) binding affinity (London and Coyle)
[3] = biological target: T1, glycine site of the NMDA receptor (Rattus norvegicus, UniProt P35439); experiment: Glycine site of the NMDA receptor binding affinity (Jones et al.)
T1 construct: from tissue

[4] = Table 2, cyclopentyl-fused analogs
[5] = Table 1, cyclohexyl-fused analogs

SMILES	IC50 [1, 4] [µM]	IC50 [2, 4] [µM]	IC50 [3, 4] [µM]	IC50 [2, 5] [µM]	IC50 [1, 5] [µM]	IC50 [3, 5] [µM]
O=c1[nH]c2cc([N+](=O)[O-])c3c(c2[nH]c1=O)CC(N1CCCCC1)C3 (stereo not shown) [Example 108, 6-Nitro-8-piperidin-1-yl-4,7,8,9-tetrahydro-1H-cyclopenta[f]quinoxaline-2,3-dione]	3.4	1.6	–	–	–	–
CNC1CCc2c([N+](=O)[O-])cc3[nH]c(=O)c(=O)[nH]c3c2C1 (stereo not shown) [Example 52, 9-Methylamino-6-nitro-1,4,7,8,9,10-hexahydrobenzo[f]quinoxaline-2,3-dione]	–	–	–	2.8	0.79	> 1
O=C(Nc1ccccc1)NC1CCc2c([N+](=O)[O-])cc3[nH]c(=O)c(=O)[nH]c3c2C1 (stereo not shown) [Example 42, N-phenyl-N'-(6-nitro-2,3-dioxo-1,2,3,4,7,8,9,10-octahydrobenzo[f]quinoxalin-9-yl)urea]	–	–	–	0.83	0.15	0.18
O=c1[nH]c2cc([N+](=O)[O-])c3c(c2[nH]c1=O)CC(N1CCCC1)CC3 (stereo not shown) [Example 86, 6-Nitro-9-pyrrolidin-1-yl-1,4,7,8,9,10-hexahydro-benzo[f]quinoxaline-2,3-dione]	–	–	–	3.8	2.2	–
CN(C(=O)C1Cc2c([N+](=O)[O-])cc3[nH]c(=O)c(=O)[nH]c3c2C1)c1ccccc1 (stereo not shown) [Example 69, 6-Nitro-2,3-dioxo-2,3,4,7,8,9-hexahydro-1H-cyclopenta[f]quinoxaline-8-carboxylic acid methyl-phenyl-amide]	0.42	1.6	> 100	–	–	–
CNC1Cc2c([N+](=O)[O-])cc3[nH]c(=O)c(=O)[nH]c3c2C1 (stereo not shown) [Example 100, 8-Methylamino-6-nitro-4,7,8,9-tetrahydro-1H-cyclopenta[f]quinoxaline-2,3-dione methane sulfonate salt]	1.2	2.2	–	–	–	–
CN(C(=O)c1ccccc1)C1CCc2c([N+](=O)[O-])cc3[nH]c(=O)c(=O)[nH]c3c2C1 (stereo not shown) [Example 53, N-Methyl-N-(6-nitro-2,3-dioxo-1,2,3,4,7,8,9,10-octahydro-benzo[f]quinoxalin-9-yl)-benzamide]	–	–	–	1.6	1.1	–
O=C(CCc1ccc(O)cc1)NC1CCc2c([N+](=O)[O-])cc3[nH]c(=O)c(=O)[nH]c3c2C1 (stereo not shown) [Example 41, 2-(6-nitro-2,3-dioxo-1,2,3,4,7,8,9,10-octahydrobenzo[f]quinoxaline-9-ylcarbamoyl)ethyl-(4-hydroxy)benzene]	–	–	–	–	–	> 1
CC(=O)NC1Cc2cc(Br)c3[nH]c(=O)c(=O)[nH]c3c2C1 (stereo not shown) [Example 28, N-(5-bromo-2,3-dioxo-2,3,4,7,8,9-hexahydro-1H-cyclopenta[f]quinoxalin-8-yl)-acetamide]	> 100	> 100	–	–	–	–
CN(C(=O)c1cccs1)C1Cc2c([N+](=O)[O-])cc3[nH]c(=O)c(=O)[nH]c3c2C1 (stereo not shown) [Example 67, Thiophene-2-carboxylic acid methyl-(6-nitro-2,3-dioxo-2,3,4,7,8,9-hexahydro-1H-cyclopenta[f]quinoxalin-8-yl)-amide]	3.6	1.6	–	–	–	–
O=C(CN(CCO)CCO)NC1Cc2c([N+](=O)[O-])cc3[nH]c(=O)c(=O)[nH]c3c2C1 (stereo not shown) [Example 101, 2-[Bis-(2-hydroxy-ethyl)-amino]-N-(6-nitro-2,3-dioxo-2,3,4,7,8,9-hexahydro-1H-cyclopenta[f]quinoxalin-8-yl)-acetamide]	1.1	1.4	–	–	–	–

Now from value to molecule:

IC50 [1, 4] [µM]	IC50 [2, 4] [µM]	IC50 [3, 4] [µM]	IC50 [2, 5] [µM]	IC50 [1, 5] [µM]	IC50 [3, 5] [µM]	SMILES
5.1	–	–	–	–	–	CC(=O)NC1Cc2c([N+](=O)[O-])c(Br)c3[nH]c(=O)c(=O)[nH]c3c2C1 (stereo not shown) [Example 29, N-(5-bromo-6-nitro-2,3-dioxo-2,3,4,7,8,9-hexahydro-1H-cyclopenta[f]quinoxalin-8-yl)acetamide]
0.64	0.86	> 1	–	–	–	O=C(NC1Cc2c([N+](=O)[O-])cc3[nH]c(=O)c(=O)[nH]c3c2C1)C1CCCN1 (stereo not shown) [Example 64, Pyrrolidine-2-carboxylic acid (6-nitro-2,3-dioxo-2,3,4,7,8,9-hexahydro-1H-cyclopenta[f]quinoxalin-8-yl)-amide]
1.5	2.2	–	–	–	–	O=c1[nH]c2cc([N+](=O)[O-])c3c(c2[nH]c1=O)CC(N1CCCC1)C3 (stereo not shown) [Example 104, 6-Nitro-8-pyrrolidin-1-yl-4,7,8,9-tetrahydro-1H-cyclopenta[f]quinoxaline-2,3-dione]
5.1	5.4	–	–	–	–	CCN(CC)C1Cc2c([N+](=O)[O-])cc3[nH]c(=O)c(=O)[nH]c3c2C1 (stereo not shown) [Example 109, 8-Diethylamino-6-nitro-4,7,8,9,-tetrahydro-1H-cyclopenta[f]quinoxaline-2,3-dione]
2.6	2.1	–	–	–	–	NC1Cc2c([N+](=O)[O-])cc3[nH]c(=O)c(=O)[nH]c3c2C1 (stereo not shown) [Example 38, 8-amino-6-nitro-4,7,8,9-tetrahydro-1H-cyclopenta[f]quinoxaline-2,3-dione hydrochloride]
–	–	–	> 100	14	–	O=c1[nH]c2cc(Br)c3c(c2[nH]c1=O)CC(OCc1ccccc1)CC3 (stereo not shown) [Example 8, 9-benzyloxy-6-bromo-1,4,7,8,9,10-hexahydro-benzo[f]quinoxaline-2,3-dione]
0.42	1.9	14	–	–	–	O=C(O)C1Cc2c([N+](=O)[O-])cc3[nH]c(=O)c(=O)[nH]c3c2C1 (stereo not shown) [Example 78, 6-Nitro-2,3,-dioxo-2,3,4,7,8,9-hexahydro-1H-cyclopenta[f]quinoxaline-8-carboxylic acid]
25	87	–	–	–	–	CC(=O)NC1Cc2ccc3[nH]c(=O)c(=O)[nH]c3c2C1 (stereo not shown) [Example 30, N-(2,3-dioxo-2,3,4,7,8,9-hexahydro-1H-cyclopenta[f]quinoxalin-8-yl)-acetamide]
0.56	1.9	> 1	–	–	–	O=C(NC1Cc2c([N+](=O)[O-])cc3[nH]c(=O)c(=O)[nH]c3c2C1)c1ccccn1 (stereo not shown) [Example 62, Pyridine-2-carboxylic acid (6-nitro-2,3-dioxo-2,3,4,7,8,9-hexahydro-1H-cyclopenta[f]quinoxalin-8-yl)-amide]
1.6	3.9	–	–	–	–	O=C(Nc1ccccc1)C1Cc2c([N+](=O)[O-])cc3[nH]c(=O)c(=O)[nH]c3c2C1 (stereo not shown) [Example 80, 6-Nitro-2,3,-dioxo-2,3,4,7,8,9-hexahydro-1H-cyclopenta[f]quinoxaline-8-carboxylic acid phenylamide]
1.3	8.1	–	–	–	–	O=C(NC1Cc2c([N+](=O)[O-])cc3[nH]c(=O)c(=O)[nH]c3c2C1)c1cc2ccccc2s1 (stereo not shown) [Example 65, Benzo[b]thiophene-2-carboxylic acid (6-nitro-2,3,-dioxo-2,3,4,7,8,9-hexahydro-1H-cyclopenta[f]quinoxalin-8-yl)-amide]
2.2	2.2	–	–	–	–	CC(=O)N(C)C1Cc2c([N+](=O)[O-])cc3[nH]c(=O)c(=O)[nH]c3c2C1 (stereo not shown) [Example 105, N-Methyl-N-(6-nitro-2,3,-dioxo-2,3,4,7,8,9-hexahydro-1H-cyclopenta[f]quinoxaline-8-yl)acetamide]
7.4	1.9	–	–	–	–	CN(C(=O)c1ccccc1)C1Cc2c([N+](=O)[O-])cc3[nH]c(=O)c(=O)[nH]c3c2C1 (stereo not shown) [Example 68, N-Methyl-N-(6-nitro-2,3-dioxo-2,3,4,7,8,9-hexahydro-1H-cyclopenta[f]quinoxalin-8-yl)-benzamide]
